The test system of data set [1] is Xanthomonas campestris pv. campestris. Put plainly: In vivo preventive test on Xanthomonas campestris pv. campestris (black rot on cabbage). Particulars: 31 ppm, cabbage plants sprayed 72 hours before inoculation; evaluated 8 or 10 days after inoculation. How it is done:
The tested active ingredients were prepared by homogenization in a mixture of acetone/Dimethyl sulfoxide/Tween®, and then diluted with water to obtain the desired active material concentration.
The young plants of cabbage were treated by spraying the active ingredient prepared as described above.
Control plants were treated only with an aqueous solution of acetone/Dimethyl sulfoxide/Tween®.
After 72 hours, the plants were contaminated by spraying the leaves with an aqueous bacteria suspension of Xanthomonas campestris pv. campestris. The contaminated cabbage plants were incubated for 8 or 10 days at 27° C. at 95% relative humidity.
The test was evaluated 8 or 10 days after the inoculation. 0% means an efficacy which corresponds to that of the control plants while an efficacy of 100% means that no disease was observed.

Data set [2] shares this test system. The experiment in a line: Xanthomonas campestris pv. campestris in vitro cell test. It is filed as cell-based. Particulars: 20 ppm of active ingredient, liquid culture, 24 h incubation, read-out: efficacy (inhibition of bacteria growth). The procedure: (§1) • Solvent: DMSO • Culture medium: LB broth medium (Luria Broth Miller) Sigma • Inoculum: bacteria suspension Compounds were solubilized in DMSO and the solution used to prepare the required range of concentrations. The final concentration of DMSO used in the assay was 10%. Inoculum was prepared from a pre-culture of bacteria grown in liquid medium and diluted to the desired optical density (OD). Compounds were evaluated for their ability to inhibit bacteria growth in liquid culture assay. The compounds were added in the desired concentrations to culture medium containing the bacteria suspension. After 24 h of incubation, the efficacy of compounds was determined by spectrometric measurement of bacteria growth. Inhibition was determined by comparing the absorbance values in wells containing the compounds with the absorbance in control wells without active ingredients.

Data set [3] relates to Pseudomonas syringae pv. tomato. The experiment in a line: Pseudomonas syringae pv. tomato in vitro cell test. Format: cell-based. Particulars: 20 ppm of active ingredient, liquid culture, 24 h incubation, read-out: efficacy (inhibition of bacteria growth). The procedure:
as §1, with “suspension Compounds to be tested were solubilized” for “suspension Compounds were solubilized”, “assay was ≤1%. Inoculum was” for “assay was 10%. Inoculum was”, “wells without compounds.” for “wells without active ingredients.”

Data set [4] in a line: Log P by HPLC on reversed phase columns (EEC directive 79/831 Annex V.A8). It is filed as physicochemical. Particulars: reversed phase HPLC columns. The procedure: In the above tables, measurement of Log P values was performed according to EEC directive 79/831 Annex V.A8 by HPLC (High Performance Liquid Chromatography) on reversed phase columns with the following methods: [^a] […] If more than one Log P value is available within the same method, all the values are given and separated by “+”. Calibration was done with straight-chain alkan2-ones (with 3 to 16 carbon atoms) with known Log P values (measurement of Log P values using retention times with linear interpolation between successive alkanones). Lambda-max-values were determined using UV-spectra from 200 nm to 400 nm and the peak values of the chromatographic signals.

Another data set deals with Botrytis cinerea. Put plainly: Botrytis cinerea in vitro cell test. It is filed as cell-based. Conditions: 120 h, 20 ppm of active ingredient, liquid culture, 5 days incubation, read-out: efficacy (inhibition of fungal growth). The procedure:
• Solvent: DMSO • Culture medium: 14.6 g anhydrous D-glucose (VWR), 7.1 g Mycological Peptone (Oxoid), 1.4 g granulated Yeast Extract (Merck), QSP Iliter • Inoculum: spore suspension
Fungicides were solubilized in DMSO and the solution used to prepare the required range of concentrations. The final concentration of DMSO used in the assay was ≤[…]1%.
A spore suspension of B. cinerea was prepared and diluted to the desired spore density.
Fungicides were evaluated for their ability to inhibit spore germination and mycelium growth in liquid culture assay. The compounds were added in the desired concentration to the culture medium with spores. After 5 days incubation, fungi-toxicity of compounds was determined by spectrometric measurement of mycelium growth. Inhibition of fungal growth was determined by comparing the absorbance values in wells containing the fungicides with the absorbance in control wells without fungicides.

Data set [5] deals with salicylate responsive promoter sequence of the PR1 (pathogenesis-related protein I) gene (AT2G14610). The experiment in a line: Induction of defense gene expression in Arabidopsis thaliana (PR1 promoter-GFP reporter plants). Format: in vivo. Conditions: 300 ppm, sprayed; 3rd day after spraying; mock treated leaves set as 1.00. How it is done:
Arabidopsis thaliana reporter plants containing the coding sequence of a green fluorescent protein (GFP) linked to the salicylate responsive promoter sequence of the PR1 (pathogenesis-related protein I) gene (AT2G14610) were grown for five days and then sprayed with compounds. On the 3rd day after spraying, plant fluorescence was assessed with a MacroFluo instrument from Leica Microsystems (Wetzlar, Germany). Fluorescences were quantified with the Meta-Morph Microscopy Automation & Image Analysis Software (Molecular Devices, Sunnyvale, Calif., United States).
Background fluorescence in mock treated leaves was set as 1.00.

For the compound `O=C(NC1(C(=O)O)CC1)c1cc(Br)c(Br)s1` [CMP1], the efficacy in data set [1] was determined as 10%.

Regarding `O=C(NC1(C(=O)O)CC1)c1sc(Br)c(Br)c1Br` [I.14], in data set [1], the efficacy entry is on record as “at least 80%”.

With `O=C(NC1(C(=O)O)CC1)c1sc(Cl)c(Cl)c1Br` [I.15, 1-{[(3-bromo-4,5-dichloro-2-thienyl)carbonyl]amino}cyclopropanecarboxylic Acid], the inhibition at 20 ppm (in data set [2]; in data set [3]; in the data set with Botrytis cinerea) was at most 30% in each case. Moreover, the chromatographic logP was 2.37 in data set [4] (method [a]: LC-UV, acidic range, 0.1% formic acid in water and acetonitrile as eluent); 2.39 in data set [4] (value in the preparation example, method letter not given).

`O=C(O)c1ccccc1O` [Salicylic acid] showed a relative fluorescence value in data set [5] of 2.70.

Source of the values: patent US20220274945A1, “SUBSTITUTED THIOPHENE CARBOXAMIDES AND DERIVATIVES THEREOF AS MICROBICIDES” (Bayer Aktiengesellschaft, priority 2019, published 2022).
